Data set [1] can be described thus: Metabolic stability in mouse plasma. The settings on record: after 1 h at 37 °C, 100 μM substrate. The class given is in vitro ADME. As for the experimental part:
Because of the lack of systemic activity of compound 23, we evaluated the in vitro plasmatic and hepatic metabolic stability. To this aim, compound 23 was exposed to mouse plasma and mouse liver microsome (MLM) fractions, and the residual substrate was measured after 1 h. Under these conditions, the residual substrate was about 97% and 90% in plasma and microsomes, respectively, denoting that this molecule suffers from mild hydrolysis of the ester group.
The standard incubation mixture (100 μL final volume) was carried out by dissolving the tested substrate (100 μM) in DMSO (5% final volume) in preincubated plasma at 37 °C. The mixture was shaken for 60 min at 37 °C. Control incubations were carried out without substrate. Each incubation was stopped by addition of 200 μL of ice‐cold acetonitrile, vortexed, and centrifuged at 13 000 r.p.m. for 10 min. The supernatants were analyzed by LC‐UV [68].
The metabolic stability of the compound 23 was determined in vitro by measuring the residual peak area after incubation by LC‐UV analysis. Samples were further processed by LC‐HRMS equipment for metabolite profiling. Raw data files were processed using both XCALIBUR® and COMPOUND DISCOVERER 3.2® software (Thermo Scientific) using a customized workflow for the detection and identification of the expected and unknown metabolites (Fig. S80).

The subject of data set [2] is capsaicin‐induced excitability in murine nociceptors. Briefly: Multielectrode array (MEA): capsaicin-induced firing in nociceptors. The format is cell-based. The settings on record: 1 μM compound, 0.5 μM capsaicin, P2/P1. As for the experimental part: (§1) Additionally, we investigated the effect of compound 23 on capsaicin and AITC‐induced excitability in murine nociceptors. Employing an IC50 value of 1 μM for TRPV1 and 5 μM for TRPA1 of firing inhibition by compound 23 (Fig. 4), we interrogated its ability to modulate neuronal excitability. As for TRPM8, our experimental design involved a protocol of dual agonist pulses interspersed with a washing pulse to minimize agonist‐induced channel desensitization. Compound 23 was administered 1 min prior to and during the second agonist pulse.
(§2) Primary cultures of neonatal dorsal root ganglia were used for multielectrode array (MEA) and patch‐clamp experiments following established methodologies previously described. Neonatal dorsal root ganglia (DRGs) were obtained from Wistar rats (3–5 days old) and were isolated and digested with 0.25% (w/v) collagenase (type IA) in DMEM GlutaMax with 1% (v/v) penicillin/streptomycin (P/S) solution for 1 h at 37 °C in a 5% CO2 Thermo Scientific incubator. Following digestion, DRGs were mechanically dissociated and passed through a 100 μm cell strainer to obtain single‐cell suspensions. Suspensions were washed with DMEM GlutaMax with 10% (v/v) fetal bovine serum (FBS) and 1% (v/v) penicillin/streptomycin (P/S). Cells were then seeded in microelectrode array chambers coated with poly‐L‐lysine (8.3 μg·mL^−1) and laminin (5 μg·mL^−1). […]

The target of data set [3] is T1, recombinant human TRPM8 stably expressed in HEK293 cells (hTRPM8) (Homo sapiens, UniProt Q7Z2W7).
T1 construct: expressed in transfected cells
T1 sequence (Q7Z2W7 whole entry): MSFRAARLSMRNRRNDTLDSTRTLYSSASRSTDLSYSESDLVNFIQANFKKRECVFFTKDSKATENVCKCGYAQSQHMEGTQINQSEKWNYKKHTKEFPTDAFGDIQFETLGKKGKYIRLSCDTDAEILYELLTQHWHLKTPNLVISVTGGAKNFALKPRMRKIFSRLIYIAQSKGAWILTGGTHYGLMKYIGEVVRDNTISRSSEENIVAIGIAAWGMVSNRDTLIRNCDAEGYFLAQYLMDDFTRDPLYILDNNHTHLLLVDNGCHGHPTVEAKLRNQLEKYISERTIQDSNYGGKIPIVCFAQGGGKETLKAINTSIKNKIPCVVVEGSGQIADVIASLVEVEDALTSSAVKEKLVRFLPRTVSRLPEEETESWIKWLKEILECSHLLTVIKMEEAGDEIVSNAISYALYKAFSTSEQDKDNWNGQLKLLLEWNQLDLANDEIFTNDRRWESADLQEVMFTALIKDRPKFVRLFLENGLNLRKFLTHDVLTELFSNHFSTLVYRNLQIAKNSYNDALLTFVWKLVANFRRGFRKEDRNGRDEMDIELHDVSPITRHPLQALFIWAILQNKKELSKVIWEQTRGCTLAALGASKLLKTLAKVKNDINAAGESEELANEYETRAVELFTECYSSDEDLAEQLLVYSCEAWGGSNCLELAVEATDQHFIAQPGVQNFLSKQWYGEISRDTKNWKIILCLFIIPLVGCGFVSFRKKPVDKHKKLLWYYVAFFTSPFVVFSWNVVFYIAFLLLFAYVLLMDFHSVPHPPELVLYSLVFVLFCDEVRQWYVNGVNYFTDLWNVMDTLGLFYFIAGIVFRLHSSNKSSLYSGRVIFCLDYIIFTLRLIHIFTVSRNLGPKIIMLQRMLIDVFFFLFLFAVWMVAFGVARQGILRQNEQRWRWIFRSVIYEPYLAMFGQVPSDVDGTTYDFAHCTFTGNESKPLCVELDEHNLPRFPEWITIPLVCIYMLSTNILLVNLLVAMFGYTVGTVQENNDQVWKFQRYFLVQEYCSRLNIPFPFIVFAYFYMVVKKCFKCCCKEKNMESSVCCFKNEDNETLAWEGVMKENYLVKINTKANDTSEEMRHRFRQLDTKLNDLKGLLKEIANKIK
Description: Ca2+ microfluorimetry screen for agonist/antagonist activity in hTRPM8-HEK293 cells. The class given is cell-based. As to conditions: agonists vs WS-12, antagonists vs WS-12 response, read-out: Efficacy (percentage of maximal activation or blockade).

Data set [4] has as its system AITC‐induced excitability in murine nociceptors. Briefly: Multielectrode array (MEA): AITC-induced firing in nociceptors. As to conditions: 5 μM compound, 100 μM AITC, P2/P1. The class given is cell-based. Here is the method:
as §1, §2

Regarding `O=C(COC(=O)c1ccccc1-c1ccccc1)NC12CC3CC(CC(C3)C1)C2` [Compound 23, 2‐((3S,5S,7S)‐adamantan‐1‐ylamino)‐2‐oxoethyl [1,1′‐biphenyl]‐2‐carboxylate], the “residual substrate in mouse plasma” value in data set [1] is on record as “about 97%”. In data set [2], the “attenuation of capsaicin‐induced firing” value is recorded as 30%. The Emax in data set [3] was 100%. The “attenuation of AITC‐induced firing” value in data set [4] came to 40%.

Source of the values: paper PMC12220852, “An adamantane‐based ligand as a novel chemical tool for thermosensory TRPM8 channel therapeutic modulation” (The Febs Journal, 2025).
